{"source": "patent US20150307938A1", "about": "“METHOD TO IDENTIFY A NOVEL CLASS OF IMMUNOLOGIC ADJUVANTS” (Lancell, L.L.C., priority 2011, published 2015)", "tested_on": "skin", "assay": "Affymetrix microarray of skin, DBP-4 hr and analogs vs. untreated; gene selection by log-2 fold change, Wilcoxon, Kendall tau (Tables 8, 9)", "type": "in vivo, mouse", "conditions": "for Kendall: Kendall tau coefficient"}
{"smiles": "CCCCOC(=O)c1ccccc1C(=O)OCCCC", "note": "[DBP, dibutylphthalate]", "values": [{"measurement": "Wilcoxon", "setting": "2310016C08Rik NM_001190461_at, DBP-4 hr vs. untreated", "value": "Yes"}, {"measurement": "Kendall", "setting": "2310016C08Rik NM_001190461_at", "value": "No"}, {"measurement": "Wilcoxon", "setting": "Adam8 NM_007403_at, DBP-4 hr vs. untreated", "value": "Yes"}, {"measurement": "Kendall", "setting": "Adam8 NM_007403_at", "value": "Yes"}, {"measurement": "Wilcoxon", "setting": "Atf3 NM_007498_at, DBP-4 hr vs. untreated", "value": "Yes"}, {"measurement": "Kendall", "setting": "Atf3 NM_007498_at", "value": "No"}, {"measurement": "Wilcoxon", "setting": "Birc3 NM_007464_at, DBP-4 hr vs. untreated", "value": "No"}, {"measurement": "Kendall", "setting": "Birc3 NM_007464_at", "value": "No"}, {"measurement": "Wilcoxon", "setting": "Btg2 NM_007570_at, DBP-4 hr vs. untreated", "value": "Yes"}, {"measurement": "Kendall", "setting": "Btg2 NM_007570_at", "value": "Yes"}, {"measurement": "Wilcoxon", "setting": "Casp4 NM_007609_at, DBP-4 hr vs. untreated", "value": "Yes"}, {"measurement": "Kendall", "setting": "Casp4 NM_007609_at", "value": "No"}, {"measurement": "Wilcoxon", "setting": "Cd44 NM_001039150_at, DBP-4 hr vs. untreated", "value": "No"}, {"measurement": "Kendall", "setting": "Cd44 NM_001039150_at", "value": "No"}, {"measurement": "Wilcoxon", "setting": "Cd44 NM_001039151_at, DBP-4 hr vs. untreated", "value": "No"}, {"measurement": "Kendall", "setting": "Cd44 NM_001039151_at", "value": "No"}, {"measurement": "Wilcoxon", "setting": "Cebpd NM_007679_at, DBP-4 hr vs. untreated", "value": "Yes"}, {"measurement": "Kendall", "setting": "Cebpd NM_007679_at", "value": "No"}, {"measurement": "Wilcoxon", "setting": "Csf2rb NM_007780_at, DBP-4 hr vs. untreated", "value": "No"}, {"measurement": "Kendall", "setting": "Csf2rb NM_007780_at", "value": "Yes"}, {"measurement": "Wilcoxon", "setting": "Cxcl1 NM_008176_at, DBP-4 hr vs. untreated", "value": "Yes"}, {"measurement": "Kendall", "setting": "Cxcl1 NM_008176_at", "value": "No"}, {"measurement": "1600029D21Rik (NM_029639_at) Wilcoxon", "setting": "DBP-4 hr vs. untreated", "value": "Yes"}, {"measurement": "2010002N04Rik (NM_134133_at) Wilcoxon", "setting": "DBP-4 hr vs. untreated", "value": "Yes"}, {"measurement": "2310016C08Rik (NM_023516_at) Wilcoxon", "setting": "DBP-4 hr vs. untreated", "value": "Yes"}, {"measurement": "1810011010Rik (NM_026931_at) Wilcoxon", "setting": "DBP-4 hr vs. untreated", "value": "Yes"}, {"measurement": "Abcc3 (NM_029600_at) Wilcoxon", "setting": "DBP-4 hr vs. untreated", "value": "No"}, {"measurement": "Acot5 (NM_145444_at) Wilcoxon", "setting": "DBP-4 hr vs. untreated", "value": "Yes"}, {"measurement": "Adamts4 (NM_172845_at) Wilcoxon", "setting": "DBP-4 hr vs. untreated", "value": "Yes"}, {"measurement": "Akap12 (NM_031185_at) Wilcoxon", "setting": "DBP-4 hr vs. untreated", "value": "No"}, {"measurement": "Angptl4 (NM_020581_at) Wilcoxon", "setting": "DBP-4 hr vs. untreated", "value": "Yes"}, {"measurement": "Arc (NM_018790_at) Wilcoxon", "setting": "DBP-4 hr vs. untreated", "value": "Yes"}, {"measurement": "Arid5a (NM_145996_at) Wilcoxon", "setting": "DBP-4 hr vs. untreated", "value": "Yes"}, {"measurement": "Arid5a (NR_033310_at) Wilcoxon", "setting": "DBP-4 hr vs. untreated", "value": "Yes"}, {"measurement": "Bcar3 (NM_013867_at) Wilcoxon", "setting": "DBP-4 hr vs. untreated", "value": "No"}, {"measurement": "Bcl3 (NM_033601_at) Wilcoxon", "setting": "DBP-4 hr vs. untreated", "value": "Yes"}, {"measurement": "Bhlhe40 (NM_011498_at) Wilcoxon", "setting": "DBP-4 hr vs. untreated", "value": "No"}, {"measurement": "Calcb (NM_054084_at) Wilcoxon", "setting": "DBP-4 hr vs. untreated", "value": "No"}, {"measurement": "Ccl1 (NM_011329_at) Wilcoxon", "setting": "DBP-4 hr vs. untreated", "value": "Yes"}, {"measurement": "Ccl2 (NM_011333_at) Wilcoxon", "setting": "DBP-4 hr vs. untreated", "value": "Yes"}, {"measurement": "Ccl3 (NM_011337_at) Wilcoxon", "setting": "DBP-4 hr vs. untreated", "value": "Yes"}, {"measurement": "Ccl7 (NM_013654_at) Wilcoxon", "setting": "DBP-4 hr vs. untreated", "value": "Yes"}, {"measurement": "Ccl9 (NM_011338_at) Wilcoxon", "setting": "DBP-4 hr vs. untreated", "value": "Yes"}, {"measurement": "Ccl12 (NM_011331_at) Wilcoxon", "setting": "DBP-4 hr vs. untreated", "value": "Yes"}, {"measurement": "Ccl17 (NM_011332_at) Wilcoxon", "setting": "DBP-4 hr vs. untreated", "value": "Yes"}, {"measurement": "Ccl20 (NM_016960_at) Wilcoxon", "setting": "DBP-4 hr vs. untreated", "value": "Yes"}, {"measurement": "Cd86 (NM_019388_at) Wilcoxon", "setting": "DBP-4 hr vs. untreated", "value": "Yes"}, {"measurement": "Cd207 (NM_144943_at) Wilcoxon", "setting": "DBP-4 hr vs. untreated", "value": "Yes"}, {"measurement": "Clec4e (NM_019948_at) Wilcoxon", "setting": "DBP-4 hr vs. untreated", "value": "Yes"}, {"measurement": "Clec7a (NM_020008_at) Wilcoxon", "setting": "DBP-4 hr vs. untreated", "value": "Yes"}, {"measurement": "Clec4d (NM_010819_at) Wilcoxon", "setting": "DBP-4 hr vs. untreated", "value": "Yes"}, {"measurement": "Clic4 (NM_013885_at) Wilcoxon", "setting": "DBP-4 hr vs. untreated", "value": "No"}, {"measurement": "Crem (NM_013498_at) Wilcoxon", "setting": "DBP-4 hr vs. untreated", "value": "Yes"}, {"measurement": "Cxcl16 (NM_023158_at) Wilcoxon", "setting": "DBP-4 hr vs. untreated", "value": "Yes"}, {"measurement": "Cyr61 (NM_010516_at) Wilcoxon", "setting": "DBP-4 hr vs. untreated", "value": "Yes"}, {"measurement": "Cytip (NM_139200_at) Wilcoxon", "setting": "DBP-4 hr vs. untreated", "value": "No"}, {"measurement": "Dusp6 (NM_026268_at) Wilcoxon", "setting": "DBP-4 hr vs. untreated", "value": "Yes"}, {"measurement": "Dusp7 (NM_153459_at) Wilcoxon", "setting": "DBP-4 hr vs. untreated", "value": "No"}, {"measurement": "Epgn (NM_053087_at) Wilcoxon", "setting": "DBP-4 hr vs. untreated", "value": "Yes"}, {"measurement": "Gzmb (NM_013542_at) Wilcoxon", "setting": "DBP-4 hr vs. untreated", "value": "Yes"}, {"measurement": "Havcr2 (NM_134250_at) Wilcoxon", "setting": "DBP-4 hr vs. untreated", "value": "Yes"}, {"measurement": "Ier2 (NM_010499_at) Wilcoxon", "setting": "DBP-4 hr vs. untreated", "value": "No"}, {"measurement": "Ier3 (NM_133662_at) Wilcoxon", "setting": "DBP-4 hr vs. untreated", "value": "Yes"}, {"measurement": "Ifi202b (NM_011940_at) Wilcoxon", "setting": "DBP-4 hr vs. untreated", "value": "Yes"}, {"measurement": "Il1f6 (NM_019450_at) Wilcoxon", "setting": "DBP-4 hr vs. untreated", "value": "Yes"}, {"measurement": "Il6 (NM_031168_at) Wilcoxon", "setting": "DBP-4 hr vs. untreated", "value": "Yes"}, {"measurement": "Il20 (NM_021380_at) Wilcoxon", "setting": "DBP-4 hr vs. untreated", "value": "Yes"}, {"measurement": "Jdp2 (NM_030887_at) Wilcoxon", "setting": "DBP-4 hr vs. untreated", "value": "No"}, {"measurement": "Jun (NM_010591_at) Wilcoxon", "setting": "DBP-4 hr vs. untreated", "value": "No"}, {"measurement": "Klk6 (NM_011177_at) Wilcoxon", "setting": "DBP-4 hr vs. untreated", "value": "Yes"}, {"measurement": "Klrb1b (NM_030599_at) Wilcoxon", "setting": "DBP-4 hr vs. untreated", "value": "No"}, {"measurement": "Krt25 (NM_133730_at) Wilcoxon", "setting": "DBP-4 hr vs. untreated", "value": "Yes"}, {"measurement": "Krt27 (NM_010666_at) Wilcoxon", "setting": "DBP-4 hr vs. untreated", "value": "Yes"}, {"measurement": "Krt35 (NM_016880_at) Wilcoxon", "setting": "DBP-4 hr vs. untreated", "value": "No"}, {"measurement": "Krt71 (NM_019956_at) Wilcoxon", "setting": "DBP-4 hr vs. untreated", "value": "Yes"}, {"measurement": "Krtap4-16 (NM_001013823_at) Wilcoxon", "setting": "DBP-4 hr vs. untreated", "value": "Yes"}, {"measurement": "LOC100044068 (XM_001473873_at) Wilcoxon", "setting": "DBP-4 hr vs. untreated", "value": "Yes"}, {"measurement": "LOC100504977 (XM_003085794_at) Wilcoxon", "setting": "DBP-4 hr vs. untreated", "value": "Yes"}, {"measurement": "Maff (NM_010755_at) Wilcoxon", "setting": "DBP-4 hr vs. untreated", "value": "Yes"}, {"measurement": "Map3k6 (NM_016693_at) Wilcoxon", "setting": "DBP-4 hr vs. untreated", "value": "No"}, {"measurement": "Mcoln2 (NM_026656_at) Wilcoxon", "setting": "DBP-4 hr vs. untreated", "value": "Yes"}, {"measurement": "Mt1 (NM_013602_at) Wilcoxon", "setting": "DBP-4 hr vs. untreated", "value": "No"}, {"measurement": "NA (AFFX-18SRNAMur/X00686_3_at) Wilcoxon", "setting": "DBP-4 hr vs. untreated", "value": "Yes"}, {"measurement": "NA (AFFX-18SRNAMur/X00686_5_at) Wilcoxon", "setting": "DBP-4 hr vs. untreated", "value": "Yes"}, {"measurement": "NA (AFFX-18SRNAMur/X00686_M_at) Wilcoxon", "setting": "DBP-4 hr vs. untreated", "value": "Yes"}, {"measurement": "NA (AFFX-BioB-3_at) Wilcoxon", "setting": "DBP-4 hr vs. untreated", "value": "Yes"}, {"measurement": "NA (AFFX-BioB-5_at) Wilcoxon", "setting": "DBP-4 hr vs. untreated", "value": "Yes"}, {"measurement": "NA (AFFX-BioB-M_at) Wilcoxon", "setting": "DBP-4 hr vs. untreated", "value": "Yes"}]}
